These results are taken from ChEMBL document CHEMBL1201862, “PubChem BioAssay data set” (2004).

Each structure is given as a SMILES string.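 These data come from cells grown in 96-well plates and exposed to compound for 48 hours at five concentrations. GI50 = concentration required for 50% inhibition of growth.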 The source made the active and inactive calls. No stated cut-off is given here; in the data, active = GI50 up to about 1.1 µM and inactive = higher. A value given as a limit tells only on which side of the number the result lay.

Test systems include BT-549; CAKI-1; COLO 205; DU-145; HCC 2998; HCT-116; HL-60; HOP-92; KM12; MCF7; NCI/ADR-RES; OVCAR-3; OVCAR-4; OVCAR-5; RXF 393; SK-MEL-28; SNB-75; T47D; UACC-62; NCI-H23.
Holding throughout (assay): inhibition of tumour cell growth, NCI panel, 48 h

In the case of `Cc1cc(S(=O)(=O)Nc2nnc3c(C(F)(F)F)cc(Cl)cn23)c(S)cc1Cl`, the GI50 was > 100 µM (inactive) in the experiment on BT-549; 56.6 µM (inactive) in the experiment on CAKI-1; > 100 µM (inactive) in the experiment with COLO 205; > 100 µM (inactive) with DU-145; > 100 µM (inactive) with HCC 2998; 57.9 µM (inactive) in the experiment with HCT-116. Also, the GI50 was > 100 µM (inactive) with HL-60; > 100 µM (inactive) in the experiment with HOP-92; 94.8 µM (inactive) in the experiment with KM12; > 100 µM (inactive) with MCF7; > 100 µM (inactive) with NCI/ADR-RES; 89.5 µM (inactive) in the experiment with OVCAR-3. The GI50 was 40.3 µM (inactive) in the experiment on OVCAR-4; > 100 µM (inactive) in the experiment on OVCAR-5; > 100 µM (inactive) with RXF 393; > 100 µM (inactive) with SK-MEL-28; 90.8 µM (inactive) with SNB-75; 70.5 µM (inactive) in the experiment with T47D. Further, the GI50 in the experiment with UACC-62 is 41.5 µM (inactive).

Consider `COc1ccc2c(c1)c1ccc3c(c1n2C)C(=O)C=CC3=O`, for which the GI50 in the experiment on BT-549 was 3.77 µM (inactive); in the experiment on CAKI-1, 8.26 µM (inactive); in the experiment with COLO 205 it was 9.75 µM (inactive); with DU-145 it was 9.77 µM (inactive); in the experiment with HCC 2998, 17.9 µM (inactive); in the experiment on HCT-116, 5.42 µM (inactive). The GI50 in the experiment on HL-60 was 0.904 µM (active); in the experiment on HOP-92, 4.95 µM (inactive); with KM12, 18 µM (inactive); with MCF7, 2.45 µM (inactive); in the experiment with NCI-H23, 13 µM (inactive); with NCI/ADR-RES it was 5.79 µM (inactive). Further, the GI50 is 8.39 µM (inactive) in the experiment with OVCAR-3; 8.38 µM (inactive) in the experiment on OVCAR-4; 15.2 µM (inactive) with OVCAR-5; 5.35 µM (inactive) in the experiment with RXF 393; 9.55 µM (inactive) with SK-MEL-28; 31.7 µM (inactive) in the experiment on SNB-75. The results for the GI50 in the experiment on T47D and with UACC-62 were 2.21 µM (inactive) and 12.8 µM (inactive), respectively.

Take `NC(=S)N1N=C(c2ccccc2O)CC1c1ccccc1` (stereo not drawn): the GI50 with BT-549 was 20.8 µM (inactive); in the experiment with CAKI-1, 27.9 µM (inactive); with COLO 205, 8.97 µM (inactive); in the experiment with DU-145 it was 27 µM (inactive); in the experiment on HCC 2998, 11.6 µM (inactive); in the experiment on HCT-116, 12.8 µM (inactive). The GI50 with HL-60 is 3.69 µM (inactive); in the experiment with HOP-92, 17.1 µM (inactive); in the experiment with KM12, 7.4 µM (inactive); with MCF7 it was 4.45 µM (inactive); in the experiment with NCI-H23, 18.5 µM (inactive); in the experiment on NCI/ADR-RES, 6.35 µM (inactive). The GI50 in the experiment with OVCAR-3 was 10.5 µM (inactive); with OVCAR-4 it was 18.2 µM (inactive); in the experiment on OVCAR-5 it was 17.9 µM (inactive); in the experiment on RXF 393, 12.4 µM (inactive); in the experiment on SK-MEL-28, 18.5 µM (inactive); in the experiment with SNB-75, 16.9 µM (inactive). The results for the GI50 in the experiment on T47D and with UACC-62 were 17.6 µM (inactive) and 11.6 µM (inactive), respectively.

Regarding `N=C(N)N/N=C/c1c(-c2cccc([N+](=O)[O-])c2)nc2n1CCS2`, the GI50 is 15.9 µM (inactive) in the experiment with BT-549; 31.7 µM (inactive) in the experiment on CAKI-1; 8.32 µM (inactive) with COLO 205; 19 µM (inactive) in the experiment on DU-145; 19.4 µM (inactive) in the experiment with HCC 2998; 20.5 µM (inactive) in the experiment with HCT-116. The GI50 is 19.1 µM (inactive) in the experiment on HL-60; 14.9 µM (inactive) with HOP-92; 18.4 µM (inactive) in the experiment on KM12; 11 µM (inactive) in the experiment with MCF7; 25.5 µM (inactive) with NCI-H23; 77.6 µM (inactive) with NCI/ADR-RES. The GI50 in the experiment on OVCAR-3 is 30.3 µM (inactive); with OVCAR-4 it was 13.9 µM (inactive); in the experiment on OVCAR-5, 35 µM (inactive); with RXF 393, 19.3 µM (inactive); with SK-MEL-28, 19.8 µM (inactive); with SNB-75, 9.68 µM (inactive). In addition, the GI50 in the experiment with T47D was 8.02 µM (inactive); with UACC-62, 17.9 µM (inactive).

Consider `Cc1oncc1/N=C1\C=C(O)C(=O)c2ccccc21`, for which the GI50 was 12.4 µM (inactive) in the experiment with BT-549; 9.18 µM (inactive) with CAKI-1; 17 µM (inactive) in the experiment with COLO 205; 15 µM (inactive) in the experiment with DU-145; 16.8 µM (inactive) with HCC 2998; 3.16 µM (inactive) with HCT-116. The GI50 in the experiment with HL-60 was 2.26 µM (inactive); with HOP-92, 10.4 µM (inactive); in the experiment with KM12 it was 6.21 µM (inactive); in the experiment with MCF7 it was 2.68 µM (inactive); in the experiment on NCI-H23, 3.79 µM (inactive); with NCI/ADR-RES it was 3.85 µM (inactive). Also, the GI50 is 1.9 µM (inactive) in the experiment on OVCAR-3; 3.62 µM (inactive) in the experiment on OVCAR-4; 13.5 µM (inactive) in the experiment with OVCAR-5; 13.2 µM (inactive) in the experiment with RXF 393; 15.4 µM (inactive) in the experiment on SK-MEL-28; 13.1 µM (inactive) with SNB-75. Also, the values for the GI50 in the experiment on T47D and with UACC-62 were 3.3 µM (inactive) and 2.99 µM (inactive), respectively.

As to `CCOC(=O)c1cc2cc(N(C(C)=O)C(C)=O)ccc2s1`, the GI50 with BT-549 is 29.9 µM (inactive); in the experiment on CAKI-1, 39.4 µM (inactive); in the experiment with COLO 205, 33.7 µM (inactive); in the experiment with DU-145, 23.7 µM (inactive); in the experiment on HCC 2998, 35.4 µM (inactive); in the experiment with HCT-116, 29.5 µM (inactive). For the same compound, the GI50 in the experiment on HL-60 is 13 µM (inactive); in the experiment with HOP-92 it was 27.1 µM (inactive); in the experiment on KM12, 40.5 µM (inactive); in the experiment on MCF7, 28.3 µM (inactive); in the experiment with NCI-H23, 45.3 µM (inactive); in the experiment on NCI/ADR-RES, 33.7 µM (inactive). The GI50 with OVCAR-3 was 30.8 µM (inactive); in the experiment on OVCAR-4, 31.3 µM (inactive); with OVCAR-5, 25.1 µM (inactive); in the experiment on RXF 393, 13.5 µM (inactive); in the experiment on SK-MEL-28 it was 30.8 µM (inactive); with SNB-75, 10.1 µM (inactive). For the same compound, the GI50 is 18.3 µM (inactive) in the experiment with T47D and 31.6 µM (inactive) in the experiment with UACC-62.

`O=c1cc(N2CCCC2)[nH]c(=O)n1-c1ccc(F)cc1`: the GI50 in the experiment with BT-549, with CAKI-1, with COLO 205, in the experiment with DU-145, in the experiment with HCC 2998 and with HCT-116 was > 100 µM (inactive) each time. For the same compound, the GI50 with HL-60, in the experiment with HOP-92, with KM12, with MCF7, in the experiment with NCI-H23 and in the experiment on NCI/ADR-RES was > 100 µM (inactive) throughout. In addition, the GI50 with OVCAR-3, in the experiment with OVCAR-4, in the experiment on OVCAR-5, in the experiment with RXF 393, in the experiment on SK-MEL-28 and in the experiment with SNB-75 was > 100 µM (inactive) throughout. Also, the GI50 with T47D and in the experiment on UACC-62 was > 100 µM (inactive) in each case.

As for `N#CC12CC3=C(N=C1NC1=C(CCc4ccccc41)C2)c1ccccc1CC3` (stereo not drawn), the GI50 is 9.29 µM (inactive) in the experiment with BT-549; 3.8 µM (inactive) in the experiment with CAKI-1; 1.73 µM (inactive) in the experiment on COLO 205; 3.97 µM (inactive) with DU-145; 1.74 µM (inactive) in the experiment with HCC 2998; 1.95 µM (inactive) with HCT-116. The GI50 in the experiment with HL-60 is 0.323 µM (active); in the experiment on HOP-92, 2.72 µM (inactive); in the experiment with KM12 it was 0.938 µM (active); with MCF7, 0.594 µM (active); in the experiment on NCI-H23 it was 3.18 µM (inactive); with NCI/ADR-RES it was 2.97 µM (inactive). Besides, the GI50 with OVCAR-3 was 0.538 µM (active); with OVCAR-4, 7.55 µM (inactive); with OVCAR-5 it was 4.22 µM (inactive); in the experiment with RXF 393, 3.4 µM (inactive); in the experiment on SK-MEL-28, 4.06 µM (inactive); in the experiment with SNB-75 it was 1.64 µM (inactive). For the same compound, the figures for the GI50 with T47D and with UACC-62 were 6.67 µM (inactive) and 2.82 µM (inactive), respectively.

Consider `Cc1nc(Nc2ccc(Cl)c(Cl)c2)sc1C(/C=C/c1ccc2c(c1)OCO2)=N/Nc1ccc([N+](=O)[O-])cc1[N+](=O)[O-]`, for which the GI50 was > 100 µM (inactive) in the experiment with BT-549; > 46.5 µM (inactive) in the experiment with CAKI-1; > 100 µM (inactive) in the experiment on COLO 205; > 100 µM (inactive) in the experiment with DU-145; > 78.5 µM (inactive) in the experiment with HCC 2998; 56.5 µM (inactive) with HCT-116. In addition, the GI50 in the experiment on HL-60 is > 79.6 µM (inactive); in the experiment with HOP-92, 85.1 µM (inactive); in the experiment with KM12 it was > 88.7 µM (inactive); with MCF7 it was > 100 µM (inactive); in the experiment on NCI-H23 it was 67.3 µM (inactive); with NCI/ADR-RES, > 100 µM (inactive). Besides, the GI50 with OVCAR-3 is > 100 µM (inactive); in the experiment with OVCAR-4 it was > 100 µM (inactive); in the experiment with OVCAR-5, > 100 µM (inactive); in the experiment with RXF 393, 27.2 µM (inactive); with SK-MEL-28 it was > 100 µM (inactive); in the experiment on SNB-75 it was 13.2 µM (inactive). For the same compound, the figures for the GI50 with T47D and in the experiment on UACC-62 were > 100 µM (inactive) and > 61.9 µM (inactive), respectively.

Take `C/C(=N\O)c1cccc(Nc2nc3ccccc3c3occc23)c1`: the GI50 in the experiment on BT-549 is 13.1 µM (inactive); in the experiment on CAKI-1 it was 10.7 µM (inactive); with COLO 205, 12.9 µM (inactive); in the experiment with DU-145, 13.2 µM (inactive); in the experiment with HCC 2998 it was 14.6 µM (inactive); in the experiment with HCT-116, 12.3 µM (inactive). The GI50 in the experiment with HL-60 was 20.9 µM (inactive); with HOP-92, 5.3 µM (inactive); in the experiment with KM12 it was 10 µM (inactive); in the experiment with MCF7, 15 µM (inactive); in the experiment on NCI/ADR-RES, 13.1 µM (inactive); in the experiment on OVCAR-3, 13.7 µM (inactive). Further, the GI50 is 12.4 µM (inactive) with OVCAR-4; 14.9 µM (inactive) in the experiment on OVCAR-5; 5.19 µM (inactive) in the experiment with RXF 393; 14.3 µM (inactive) in the experiment on SK-MEL-28; 16.2 µM (inactive) in the experiment on SNB-75; 7.73 µM (inactive) in the experiment with T47D. Besides, the GI50 with UACC-62 is < 0.01 µM (active).
